# Test system: stripe rust
# Assay: Glyphosate amount and timing on glyphosate resistant Macon wheat: stripe rust and yield
# Format: in vivo, Puccinia striiformis
# Description: This example describes the effect of glyphosate treatment of glyphosate resistant wheat in varying amounts and at different times. Eight different treatment regimens were applied to the hard white spring wheat variety Macon, which is susceptible to stripe rust. Macon plots were planted at the Palouse Conservation Farm near Pullman, Washington and subjected to one of the following eight treatment regimens:
# Treatment 1: no herbicide treatment and manual weed control;
# Treatment 2: a 16 oz./A (0.50 kg/ha of active ingredient) application of glyphosate, one-half the recommended rate of 32 oz./A (1.0 kg/ha of active ingredient), was made ‘on-label’ to glyphosate resistant wheat at the 4-5 leaf stage.
# Treatment 3: a first application of glyphosate at one-half (0.50 kg/ha of active ingredient) the recommended density of 1.0 kg/ha was made to glyphosate resistant wheat at the 4-5 leaf stage according to the manufacturer's instructions. A second application of 16 oz./A (0.50 kg/ha of active ingredient) glyphosate was made once moderate stripe rust symptoms appeared (42 days following the first glyphosate application).
# Treatment 4: a 16 oz./A (0.50 kg/ha of active ingredient) application of glyphosate, one-half the recommended rate, was made to glyphosate resistant wheat once moderate stripe rust symptoms appeared.
# Treatment 5: a 32 oz./A (1.0 kg/ha of active ingredient) application of glyphosate, the recommended full rate, was made ‘on-label’ to glyphosate resistant wheat at the 4-5 leaf stage.
# Treatment 6: a first application of 32 oz./A. (1.0 kg/ha of active ingredient) glyphosate, the recommended full rate, was made ‘on-label’ to glyphosate resistant wheat at the 4-5 leaf stage and a second application of 32 oz./A. (1.0 kg/ha) glyphosate was made once moderate stripe rust symptoms appeared.
# Treatment 7: a 32 oz./A. (1.0 kg/ha of active ingredient) application of glyphosate was made to glyphosate resistant wheat once moderate stripe rust symptoms appeared. Treatment 8: a 48 oz./A. ([…] of active ingredient) application of glyphosate, 1.5 times the recommended rate, was made to glyphosate resistant plants at the 4-5 leaf stage.
# With reference to Table 7, stripe rust severity is characterized with two numerical indications. The first is a number characterizing the stripe rust severity on a scale of 0-9, with 0 corresponding to no infection and 9 being a high level of spore activity and infection. The second number is a percentage of the plants in the plot infected with the rating described by the first number.
# [1] = 16 oz (52 days) and 16 oz (94 days)
# [2] = 32 oz (52 days) and 32 oz (94 days)
# [3] = off-label applications made 94 days after planting
structure (smiles),measurement,setting,value
"O=C(O)CNCP(=O)(O)O [glyphosate, N-phosphonomethylglycine]","Stripe Rust (96 days after planting), percentage of the plants in the plot infected with the rating",16 oz (52 days),10%
same,"Stripe Rust (102 days after planting), percentage of the plants in the plot infected with the rating",16 oz (52 days),30%
same,"Stripe Rust (102 days after planting), severity on a scale of 0-9",16 oz (52 days),7-8
same,"Stripe Rust (106 days after planting), percentage of the plants in the plot infected with the rating",16 oz (52 days),30%
same,"Stripe Rust (106 days after planting), severity on a scale of 0-9",16 oz (52 days),8
same,Yield,16 oz (52 days),60.2 bu/A
same,"Stripe Rust (96 days after planting), percentage of the plants in the plot infected with the rating",[1],10%
same,"Stripe Rust (96 days after planting), severity on a scale of 0-9",[1],4-5
same,"Stripe Rust (102 days after planting), percentage of the plants in the plot infected with the rating",[1],10%
same,"Stripe Rust (102 days after planting), severity on a scale of 0-9",[1],0-1
same,"Stripe Rust (106 days after planting), percentage of the plants in the plot infected with the rating",[1],10%
same,"Stripe Rust (106 days after planting), severity on a scale of 0-9",[1],2
same,Yield,[1],68.7 bu/A
same,"Stripe Rust (96 days after planting), severity on a scale of 0-9","16 oz (52 days), 0 = no infection, 9 = high level of spore activity and infection",7-8
same,"Stripe Rust (96 days after planting), percentage of the plants in the plot infected with the rating",16 oz (94 days),20%
same,"Stripe Rust (102 days after planting), percentage of the plants in the plot infected with the rating",16 oz (94 days),20%
same,"Stripe Rust (102 days after planting), severity on a scale of 0-9",16 oz (94 days),2-3
same,"Stripe Rust (106 days after planting), percentage of the plants in the plot infected with the rating",16 oz (94 days),15%
same,"Stripe Rust (106 days after planting), severity on a scale of 0-9",16 oz (94 days),2-3
same,Yield,16 oz (94 days),52.7 bu/A
same,"Stripe Rust (96 days after planting), severity on a scale of 0-9","16 oz (94 days), once moderate stripe rust symptoms appeared",7-8
same,"Stripe Rust (96 days after planting), percentage of the plants in the plot infected with the rating",32 oz (52 days),20%
same,"Stripe Rust (96 days after planting), severity on a scale of 0-9",32 oz (52 days),7-8
same,"Stripe Rust (102 days after planting), percentage of the plants in the plot infected with the rating",32 oz (52 days),40%
same,"Stripe Rust (102 days after planting), severity on a scale of 0-9",32 oz (52 days),7-8
same,"Stripe Rust (106 days after planting), percentage of the plants in the plot infected with the rating",32 oz (52 days),60%
same,"Stripe Rust (106 days after planting), severity on a scale of 0-9",32 oz (52 days),8
same,Yield,32 oz (52 days),80.3 bu/A
same,"Stripe Rust (96 days after planting), percentage of the plants in the plot infected with the rating",[2],5%
same,"Stripe Rust (96 days after planting), severity on a scale of 0-9",[2],9
same,"Stripe Rust (102 days after planting), percentage of the plants in the plot infected with the rating",[2],5%
same,"Stripe Rust (102 days after planting), severity on a scale of 0-9",[2],1-2
same,"Stripe Rust (106 days after planting), percentage of the plants in the plot infected with the rating",[2],10%
same,"Stripe Rust (106 days after planting), severity on a scale of 0-9",[2],3
same,Yield,[2],74.5 bu/A
same,"Stripe Rust (96 days after planting), percentage of the plants in the plot infected with the rating",32 oz (94 days),25%
same,"Stripe Rust (102 days after planting), percentage of the plants in the plot infected with the rating",32 oz (94 days),20%
same,"Stripe Rust (102 days after planting), severity on a scale of 0-9",32 oz (94 days),0-1
same,"Stripe Rust (106 days after planting), percentage of the plants in the plot infected with the rating",32 oz (94 days),5%
same,"Stripe Rust (106 days after planting), severity on a scale of 0-9",32 oz (94 days),2
same,Yield,32 oz (94 days),64.5 bu/A
same,"Stripe Rust (96 days after planting), severity on a scale of 0-9","32 oz (94 days), once moderate stripe rust symptoms appeared",7-8
same,"Stripe Rust (96 days after planting), percentage of the plants in the plot infected with the rating",48 oz (52 days),2%
same,"Stripe Rust (96 days after planting), severity on a scale of 0-9",48 oz (52 days),7-8
same,"Stripe Rust (102 days after planting), percentage of the plants in the plot infected with the rating",48 oz (52 days),10%
same,"Stripe Rust (102 days after planting), severity on a scale of 0-9",48 oz (52 days),4-5
same,"Stripe Rust (106 days after planting), percentage of the plants in the plot infected with the rating",48 oz (52 days),20%
same,"Stripe Rust (106 days after planting), severity on a scale of 0-9",48 oz (52 days),8
same,Yield,48 oz (52 days),67.8 bu/A
same,control of stripe rust compared to the 16 oz./A and 32 oz./A application,48 oz./A rate applied at the 4-5 leaf stage,did the best job of controlling stripe rust
same,effect on plants moderately infected with stripe rust,[3],a curative effect was observed
same,"formation of necrotic stripes on the leaves, time following glyphosate application",[3],second day
same,control of stripe rust in the trial,"treatments 3 and 6, split-treatments (52 and 94 days after planting)",best control of stripe rust

# Reference: patent publication US20130130903A1, “Suppression of Foliar and Soilborne Pathogens” (priority 2003, published 2013)
